From ChEMBL document CHEMBL5096194, “Development of Alectinib-Based PROTACs as Novel Potent Degraders of Anaplastic Lymphoma Kinase (ALK)” (J Med Chem, 2021)
Active and inactive are the calls of the source. The rule behind the calls is not given here.

Assays:
[1] = target: T1, ALK tyrosine kinase receptor (Homo sapiens, UniProt Q9UM73); experiment: Inhibition of ALK phosphorylation in human KARPAS-299 cells at 0.01 to 1 uM measured after 24 hrs by Western blot analysis; format: cell-based; conditions: dose 0.01-1 µM
Target sequence in this assay (Q9UM73 19-1620 limits assumed): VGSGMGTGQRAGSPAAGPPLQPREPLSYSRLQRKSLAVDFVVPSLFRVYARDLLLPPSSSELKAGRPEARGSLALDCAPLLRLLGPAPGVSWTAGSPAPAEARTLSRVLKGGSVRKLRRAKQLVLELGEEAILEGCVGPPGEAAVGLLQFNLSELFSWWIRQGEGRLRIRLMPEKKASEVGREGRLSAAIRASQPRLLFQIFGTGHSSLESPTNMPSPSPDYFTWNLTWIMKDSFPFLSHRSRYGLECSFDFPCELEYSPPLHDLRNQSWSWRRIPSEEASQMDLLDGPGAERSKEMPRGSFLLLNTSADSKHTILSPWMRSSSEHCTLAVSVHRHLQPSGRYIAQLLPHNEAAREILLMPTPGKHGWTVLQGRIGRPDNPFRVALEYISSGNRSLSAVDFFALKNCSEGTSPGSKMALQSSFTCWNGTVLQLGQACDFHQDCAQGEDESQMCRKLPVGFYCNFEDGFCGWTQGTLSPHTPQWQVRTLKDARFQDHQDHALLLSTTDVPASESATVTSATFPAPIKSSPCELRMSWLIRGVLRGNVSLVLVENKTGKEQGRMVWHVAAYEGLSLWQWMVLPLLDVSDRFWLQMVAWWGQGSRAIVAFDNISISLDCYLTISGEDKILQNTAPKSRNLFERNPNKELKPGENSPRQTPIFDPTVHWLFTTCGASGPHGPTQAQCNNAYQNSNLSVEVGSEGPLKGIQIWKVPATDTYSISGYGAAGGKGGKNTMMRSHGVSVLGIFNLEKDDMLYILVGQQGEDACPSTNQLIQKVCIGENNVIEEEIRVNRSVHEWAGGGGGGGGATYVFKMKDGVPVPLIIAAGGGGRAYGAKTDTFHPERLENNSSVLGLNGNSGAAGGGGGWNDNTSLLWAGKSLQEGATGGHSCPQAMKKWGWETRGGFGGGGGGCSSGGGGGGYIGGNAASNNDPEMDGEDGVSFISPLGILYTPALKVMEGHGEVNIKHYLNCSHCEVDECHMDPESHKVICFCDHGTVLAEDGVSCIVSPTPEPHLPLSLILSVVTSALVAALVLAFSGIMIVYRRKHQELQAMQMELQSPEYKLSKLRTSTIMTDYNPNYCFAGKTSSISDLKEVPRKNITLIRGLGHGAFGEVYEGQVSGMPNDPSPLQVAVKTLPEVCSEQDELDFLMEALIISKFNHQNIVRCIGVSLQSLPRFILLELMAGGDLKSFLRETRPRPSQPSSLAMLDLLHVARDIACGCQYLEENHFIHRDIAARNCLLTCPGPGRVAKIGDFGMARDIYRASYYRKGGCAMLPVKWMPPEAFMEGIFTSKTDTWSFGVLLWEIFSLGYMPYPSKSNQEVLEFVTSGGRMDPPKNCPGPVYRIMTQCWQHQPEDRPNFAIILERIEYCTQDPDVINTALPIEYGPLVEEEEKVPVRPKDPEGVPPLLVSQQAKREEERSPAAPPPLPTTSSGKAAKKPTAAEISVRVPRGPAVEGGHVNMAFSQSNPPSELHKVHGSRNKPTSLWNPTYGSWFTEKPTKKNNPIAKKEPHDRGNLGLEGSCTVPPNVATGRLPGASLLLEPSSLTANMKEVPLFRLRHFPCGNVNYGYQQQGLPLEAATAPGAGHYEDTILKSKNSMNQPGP

[2] = target: Signal transducer and activator of transcription 3 (Homo sapiens) (UniProt P40763); experiment: Inhibition of STAT3 phosphorylation in human KARPAS-299 cells as 0.01 to 1 uM measured after 24 hrs by Western blot analysis; format: cell-based; conditions: dose 0.01-1 µM
[3] = target: T2, Protein cereblon/ALK tyrosine kinase receptor/Nucleophosmin (Homo sapiens) (UniProt Q9UM73+P06748+Q96SW2); experiment: Protac activity at CRBN/NPM-ALK in human KARPAS-299 cells assessed as induction of NPM-ALK fusion protein degradation at 0.1 uM incubated for 24 hrs by Western blot analysis relative to control; format: cell-based
[4] = system: NCI-H3122; experiment: Antiproliferative activity against ALK-positive human NCI-H3122 cells assessed as inhibition of cell proliferation measured after 72 hrs by MTT assay; format: functional, cell-based; conditions: NCI-H3122, 72 h
[5] = system: KARPAS-299; experiment: Antiproliferative activity against ALK-positive human KARPAS-299 cells assessed as inhibition of cell proliferation measured after 72 hrs by MTT assay; format: functional, cell-based; conditions: KARPAS-299, 72 h
[6] = target: T2, Protein cereblon/ALK tyrosine kinase receptor/Nucleophosmin (Homo sapiens); experiment: Protac activity at CRBN/NPM-ALK in human KARPAS-299 cells assessed as induction of NPM-ALK fusion protein degradation at 1 uM incubated for 24 hrs by Western blot analysis relative to control; format: cell-based
[7] = system: BaF3; experiment: Antiproliferative activity against crizotinib-resistant mouse BaF3 cells expressing EML-ALK G1202R mutant assessed as cell viability at 1 uM incubated for 72 hrs by Celltitre-Glo assay relative to control; format: functional; conditions: read-out: Activity
[8] = system: BaF3; experiment: Antiproliferative activity against mouse BaF3 cells expressing wild type EML-ALK assessed as cell viability at 1 uM incubated for 72 hrs by Celltitre-Glo assay relative to control; format: functional; conditions: read-out: Activity
[9] = target: T3, Protein cereblon/ALK tyrosine kinase receptor/Echinoderm microtubule-associated protein-like 4 (Homo sapiens) (UniProt Q9UM73+Q9HC35+Q96SW2); experiment: Protac activity at CRBN/EML4-ALK in human NCI-H3122 cells assessed as induction of EML4-ALK fusion protein degradation at 0.1 uM incubated for 16 hrs by Western blot analysis relative to control; format: cell-based
[10] = system: BaF3; experiment: Antiproliferative activity against crizotinib-resistant mouse BaF3 cells expressing EML-ALK L1196M mutant assessed as cell viability at 1 uM incubated for 72 hrs by Celltitre-Glo assay relative to control; format: functional; conditions: read-out: Activity
[11] = target: T3, Protein cereblon/ALK tyrosine kinase receptor/Echinoderm microtubule-associated protein-like 4 (Homo sapiens); experiment: Protac activity at CRBN/EML4-ALK in human NCI-H3122 cells assessed as induction of EML4-ALK fusion protein degradation at 1 uM incubated for 16 hrs by Western blot analysis relative to control; format: cell-based
[12] = system: BaF3; experiment: Antiproliferative activity against crizotinib-resistant mouse BaF3 cells expressing EML-ALK L1152R mutant assessed as cell viability at 1 uM incubated for 72 hrs by Celltitre-Glo assay relative to control; format: functional; conditions: read-out: Activity
[13] = system: KARPAS-299; experiment: Antiproliferative activity against human KARPAS-299 cells assessed as inhibition of cell growth measured after 72 hrs by MTT assay; format: functional, cell-based; conditions: KARPAS-299, 72 h
[14] = target: T1, ALK tyrosine kinase receptor
Target sequence in this assay (Q9UM73 whole entry): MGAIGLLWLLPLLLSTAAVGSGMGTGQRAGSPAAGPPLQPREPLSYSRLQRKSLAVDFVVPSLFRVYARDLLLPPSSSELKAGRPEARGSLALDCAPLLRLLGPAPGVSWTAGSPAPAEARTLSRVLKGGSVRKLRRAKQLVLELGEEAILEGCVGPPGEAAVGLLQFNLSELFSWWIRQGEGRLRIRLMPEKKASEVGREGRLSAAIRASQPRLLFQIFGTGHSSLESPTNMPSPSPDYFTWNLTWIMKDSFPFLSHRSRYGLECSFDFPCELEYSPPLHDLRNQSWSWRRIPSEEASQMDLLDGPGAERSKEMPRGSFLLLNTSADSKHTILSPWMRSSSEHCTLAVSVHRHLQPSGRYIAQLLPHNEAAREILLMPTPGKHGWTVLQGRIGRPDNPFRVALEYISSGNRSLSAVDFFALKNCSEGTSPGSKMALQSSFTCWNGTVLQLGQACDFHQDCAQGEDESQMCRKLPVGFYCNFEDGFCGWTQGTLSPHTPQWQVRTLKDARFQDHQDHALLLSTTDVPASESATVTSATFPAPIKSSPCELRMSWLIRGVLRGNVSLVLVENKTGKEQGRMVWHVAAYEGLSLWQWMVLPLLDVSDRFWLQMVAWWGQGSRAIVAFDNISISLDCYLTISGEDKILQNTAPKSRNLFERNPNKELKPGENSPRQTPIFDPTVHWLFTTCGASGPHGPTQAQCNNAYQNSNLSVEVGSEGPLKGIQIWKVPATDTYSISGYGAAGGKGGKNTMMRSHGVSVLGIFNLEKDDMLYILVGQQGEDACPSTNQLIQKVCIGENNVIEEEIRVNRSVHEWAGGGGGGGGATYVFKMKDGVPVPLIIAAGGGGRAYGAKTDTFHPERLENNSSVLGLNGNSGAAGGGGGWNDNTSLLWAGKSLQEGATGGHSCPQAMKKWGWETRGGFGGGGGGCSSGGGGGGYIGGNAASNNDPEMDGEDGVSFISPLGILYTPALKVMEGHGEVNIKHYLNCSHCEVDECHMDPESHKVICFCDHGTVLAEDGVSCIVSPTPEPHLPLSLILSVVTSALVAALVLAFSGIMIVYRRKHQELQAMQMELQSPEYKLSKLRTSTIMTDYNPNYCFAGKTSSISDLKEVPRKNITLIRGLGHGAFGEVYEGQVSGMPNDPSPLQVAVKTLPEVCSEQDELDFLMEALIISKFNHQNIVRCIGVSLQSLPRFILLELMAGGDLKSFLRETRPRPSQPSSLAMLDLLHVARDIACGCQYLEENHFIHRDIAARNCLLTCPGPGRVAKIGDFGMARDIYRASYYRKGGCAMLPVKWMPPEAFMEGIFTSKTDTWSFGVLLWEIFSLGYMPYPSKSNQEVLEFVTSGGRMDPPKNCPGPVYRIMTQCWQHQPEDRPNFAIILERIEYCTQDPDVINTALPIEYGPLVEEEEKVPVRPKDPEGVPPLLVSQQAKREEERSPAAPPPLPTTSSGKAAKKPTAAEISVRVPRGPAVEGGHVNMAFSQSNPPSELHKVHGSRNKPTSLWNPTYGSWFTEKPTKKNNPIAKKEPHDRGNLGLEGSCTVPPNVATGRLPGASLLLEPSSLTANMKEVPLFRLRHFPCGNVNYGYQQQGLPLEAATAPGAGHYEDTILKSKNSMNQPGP

[15] = system: BaF3; experiment: Antiproliferative activity against mouse BaF3 cells assessed as cell viability at 1 uM incubated for 72 hrs by Celltitre-Glo assay relative to control; format: functional; conditions: read-out: Activity
[16] = Toxicity in NCG mouse xenografted with human KARPAS-299 cells assessed as heart damage at 20 mg/kg, po administered once every day for 3 weeks by H & E staining based analysis; format: organism-based; conditions: in vivo, 504 h
[17] = Toxicity in NCG mouse xenografted with human KARPAS-299 cells assessed as kidney damage at 20 mg/kg, po administered once every day for 3 weeks by H and E staining based analysis; format: organism-based; conditions: in vivo, 504 h
[18] = Toxicity in NCG mouse xenografted with human KARPAS-299 cells assessed as body weight loss at 20 mg/kg, po administered once every day for 3 weeks; format: organism-based; conditions: in vivo, 504 h
[19] = system: KARPAS-299; experiment: Antitumor activity against human KARPAS-299 cells xenografted in NCG mouse assessed as tumor growth inhibition at 20 mg/kg, po administered once every day for 3 weeks and measured every 3 days relative to control; format: functional; conditions: KARPAS-299, 504 h, read-out: TGI
[20] = Toxicity in NCG mouse xenografted with human KARPAS-299 cells assessed as spleen damage at 20 mg/kg, po administered once every day for 3 weeks by H and E staining based analysis; format: organism-based; conditions: in vivo, 504 h
[21] = Toxicity in NCG mouse xenografted with human KARPAS-299 cells assessed as liver damage at 20 mg/kg, po administered once every day for 3 weeks by H and E staining based analysis; format: organism-based; conditions: in vivo, 504 h
[22] = target: Leukocyte tyrosine kinase receptor (Homo sapiens) (UniProt P29376); experiment: Inhibition of LTK (unknown origin) at 10 nM relative to control
[23] = Toxicity in NCG mouse xenografted with human KARPAS-299 cells assessed as lung damage at 20 mg/kg, po administered once every day for 3 weeks by H and E staining based analysis; format: organism-based; conditions: in vivo, 504 h
[24] = system: KARPAS-299; experiment: Antitumor activity against human KARPAS-299 cells xenografted in NCG mouse assessed as reduction in tumor volume at 20 mg/kg, po administered once every day for 3 weeks and measured every 3 days; format: functional, organism-based
[25] = system: KARPAS-299; experiment: Antitumor activity against human KARPAS-299 cells xenografted in NCG mouse assessed as reduction in tumor weight at 20 mg/kg, po administered once every day for 3 weeks and measured every 3 days; format: functional, organism-based

Signal transducer and activator of transcription 3 (Homo sapiens), sequence (P40763 whole entry, the tested form may be a part): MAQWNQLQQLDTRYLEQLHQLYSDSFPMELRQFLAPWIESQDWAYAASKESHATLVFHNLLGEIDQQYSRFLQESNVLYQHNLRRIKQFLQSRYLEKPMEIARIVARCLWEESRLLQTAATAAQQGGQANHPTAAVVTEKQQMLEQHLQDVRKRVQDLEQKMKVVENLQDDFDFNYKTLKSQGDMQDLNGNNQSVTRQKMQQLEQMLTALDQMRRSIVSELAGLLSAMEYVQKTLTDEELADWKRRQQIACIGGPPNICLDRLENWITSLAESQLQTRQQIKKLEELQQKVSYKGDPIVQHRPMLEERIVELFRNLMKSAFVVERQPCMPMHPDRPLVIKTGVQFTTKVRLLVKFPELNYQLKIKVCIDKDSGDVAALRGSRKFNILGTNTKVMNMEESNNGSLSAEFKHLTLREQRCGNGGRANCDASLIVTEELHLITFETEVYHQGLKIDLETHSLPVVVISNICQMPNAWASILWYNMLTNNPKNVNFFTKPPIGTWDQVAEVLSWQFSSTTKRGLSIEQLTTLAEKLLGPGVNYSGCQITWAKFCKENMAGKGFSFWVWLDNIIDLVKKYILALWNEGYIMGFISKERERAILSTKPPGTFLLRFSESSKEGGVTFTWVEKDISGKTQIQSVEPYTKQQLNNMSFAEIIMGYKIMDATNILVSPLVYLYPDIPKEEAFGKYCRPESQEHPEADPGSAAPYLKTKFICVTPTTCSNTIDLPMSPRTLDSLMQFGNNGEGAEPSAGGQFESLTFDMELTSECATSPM
T2 sequence (P06748 whole entry partner, the tested form may be a part): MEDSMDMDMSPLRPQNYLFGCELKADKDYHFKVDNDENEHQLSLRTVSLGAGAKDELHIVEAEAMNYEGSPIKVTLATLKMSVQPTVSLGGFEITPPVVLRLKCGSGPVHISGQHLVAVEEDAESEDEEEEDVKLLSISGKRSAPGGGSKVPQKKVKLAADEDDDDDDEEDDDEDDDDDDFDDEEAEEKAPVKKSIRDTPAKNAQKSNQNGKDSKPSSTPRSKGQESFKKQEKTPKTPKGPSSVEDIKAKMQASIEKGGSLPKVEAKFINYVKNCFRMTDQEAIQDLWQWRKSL
T2 sequence (Q96SW2 whole entry partner, the tested form may be a part): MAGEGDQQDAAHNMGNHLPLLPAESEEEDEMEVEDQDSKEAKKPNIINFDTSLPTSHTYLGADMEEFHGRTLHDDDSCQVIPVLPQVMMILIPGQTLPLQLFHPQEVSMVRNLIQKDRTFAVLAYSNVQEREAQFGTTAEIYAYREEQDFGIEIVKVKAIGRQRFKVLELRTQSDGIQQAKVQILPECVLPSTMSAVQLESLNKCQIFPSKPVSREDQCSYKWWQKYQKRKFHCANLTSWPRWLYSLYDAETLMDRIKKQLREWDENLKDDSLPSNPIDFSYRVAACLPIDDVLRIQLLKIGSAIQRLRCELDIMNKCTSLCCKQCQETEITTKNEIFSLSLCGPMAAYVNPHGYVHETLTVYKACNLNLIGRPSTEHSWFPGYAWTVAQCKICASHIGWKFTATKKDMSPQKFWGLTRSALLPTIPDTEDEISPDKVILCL
T2 sequence (Q9UM73 19-1620 limits assumed): as the sequence (Q9UM73 19-1620 limits assumed) above

| SMILES | inhibition [1] | inhibition [2] | Activity [3] | IC50 [4] | IC50 [5] | Activity [6] | viability at 1 µM [7] | viability at 1 µM [8] | Activity [9] | viability at 1 µM [10] | Activity [11] | viability at 1 µM [12] | further results |
| --- | --- | --- | --- | --- | --- | --- | --- | --- | --- | --- | --- | --- | --- |
| CCc1cc2c(cc1N1CCN(C(=O)CCCCCNc3cccc4c3C(=O)N(C3CCC(=O)NC3=O)C4=O)CC1)C(C)(C)c1[nH]c3cc(C#N)ccc3c1C2=O (stereo not drawn) | Active | Active | 55.1% | 269 nM | 245 nM | 71.6% |  |  |  |  |  |  |  |
| CCc1cc2c(cc1N1CCC(N3CCN(CC(=O)NCCCCNc4cccc5c4C(=O)N(C4CCC(=O)NC4=O)C5=O)CC3)CC1)C(C)(C)c1[nH]c3cc(C#N)ccc3c1C2=O (stereo not drawn) |  |  |  | 96 nM | 119 nM |  | 70.9% | 0.1% | 49.9% | 3.6% | 87% | 0.1% |  |
| CCc1cc2c(cc1N1CCN(CC(=O)NCCCCCCNc3cccc4c3C(=O)N(C3CCC(=O)NC3=O)C4=O)CC1)C(C)(C)c1[nH]c3cc(C#N)ccc3c1C2=O (stereo not drawn) | Active | Active | 66.5% | 116 nM | 114 nM | 69.8% |  |  | 51.3% |  | 75.8% |  |  |
| Nc1cccc2c1C(=O)N(C1CCC(=O)NC1=O)C2=O (stereo not drawn) [POMALIDOMIDE] |  |  |  |  |  |  |  |  |  |  |  |  | IC50 [13]: > 10000 nM |
| CCc1cc2c(cc1N1CCN(c3cccc4c3C(=O)N(C3CCC(=O)NC3=O)C4=O)CC1)C(C)(C)c1[nH]c3cc(C#N)ccc3c1C2=O (stereo not drawn) |  |  |  | 186 nM | 101 nM | 29.9% |  |  | 24.3% |  | 50.2% |  |  |
| CCc1cc2c(cc1N1CCNCC1)C(C)(C)c1[nH]c3cc(C#N)ccc3c1C2=O |  |  |  | 38 nM | 46 nM |  | 0.5% | 0.2% |  | 0.1% |  | 0% | IC50 [14]: 320 nM; viability at 1 µM [15]: 74% |
| CCc1cc2c(cc1N1CCN(C(=O)CNc3cccc4c3C(=O)N(C3CCC(=O)N(C)C3=O)C4=O)CC1)C(C)(C)c1[nH]c3cc(C#N)ccc3c1C2=O (stereo not drawn) |  |  |  | 272 nM | 275 nM |  |  |  |  |  |  |  | IC50 [14]: 30600 nM |
| CCc1cc2c(cc1N1CCC(N3CCN(C(=O)CNc4cccc5c4C(=O)N(C4CCC(=O)NC4=O)C5=O)CC3)CC1)C(C)(C)c1[nH]c3cc(C#N)ccc3c1C2=O (stereo not drawn) | Active | Active | 72.8% | 107 nM | 107 nM | 94.3% |  |  | 77.3% |  | 96.9% |  |  |
| CCc1cc2c(cc1N1CCC(N3CCN(c4cccc5c4C(=O)N(C4CCC(=O)NC4=O)C5=O)CC3)CC1)C(C)(C)c1[nH]c3cc(C#N)ccc3c1C2=O (stereo not drawn) |  |  |  | 612 nM | 640 nM |  |  |  |  |  | 50.6% |  |  |
| CCc1cc2c(cc1N1CCN(CC(=O)NCCNc3cccc4c3C(=O)N(C3CCC(=O)NC3=O)C4=O)CC1)C(C)(C)c1[nH]c3cc(C#N)ccc3c1C2=O (stereo not drawn) | Active | Active | 68.3% | 121 nM | 106 nM | 57.8% |  |  | 74.4% |  | 81.8% |  |  |
| CCc1cc2c(cc1N1CCC(N3CCNCC3)CC1)C(C)(C)c1[nH]c3cc(C#N)ccc3c1C2=O |  |  |  | 40 nM | 50 nM |  | 0.3% | 0.2% |  | 0.1% |  | 0.1% | IC50 [14]: 290 nM |
| CCc1cc2c(cc1N1CCC(N3CCN(CC(=O)NCCCCCCNc4cccc5c4C(=O)N(C4CCC(=O)NC4=O)C5=O)CC3)CC1)C(C)(C)c1[nH]c3cc(C#N)ccc3c1C2=O (stereo not drawn) |  |  |  | 118 nM | 119 nM |  |  |  | 24.5% |  | 77.3% |  |  |
| CCc1cc2c(cc1N1CCC(N3CCOCC3)CC1)C(C)(C)c1[nH]c3cc(C#N)ccc3c1C2=O [ALECTINIB] |  |  |  | 45 nM | 47 nM |  | 73.3% | 0.1% |  | 1.9% |  | 0% | Activity [16]: Non-Toxic; Activity [17]: Non-Toxic; Activity [18]: Non-Toxic; inhibition in vivo at 20 mg/kg [19]: 63.8%; Activity [20]: Non-Toxic; Activity [21]: Non-Toxic; inhibition [22]: > 50%; Activity [23]: Non-Toxic; Activity [24]: Active; viability at 1 µM [15]: 100%; Activity [25]: Active |
| CCc1cc2c(cc1N1CCC(N3CCN(CC(=O)NCCNc4cccc5c4C(=O)N(C4CCC(=O)NC4=O)C5=O)CC3)CC1)C(C)(C)c1[nH]c3cc(C#N)ccc3c1C2=O (stereo not drawn) |  |  |  | 121 nM | 111 nM |  |  |  | 47.8% |  | 91% |  |  |
| CCc1cc2c(cc1N1CCN(CC(=O)NCCCCNc3cccc4c3C(=O)N(C3CCC(=O)NC3=O)C4=O)CC1)C(C)(C)c1[nH]c3cc(C#N)ccc3c1C2=O (stereo not drawn) | Active | Active | 56.5% | 77 nM | 97 nM | 76% | 76.1% | 0.1% | 38.3% | 4.8% | 75.7% | 0% |  |
| CCc1cc2c(cc1N1CCN(C(=O)CCCNc3cccc4c3C(=O)N(C3CCC(=O)NC3=O)C4=O)CC1)C(C)(C)c1[nH]c3cc(C#N)ccc3c1C2=O (stereo not drawn) | Active | Active | 77.4% | 92 nM | 66 nM | 85.9% |  |  |  |  |  |  |  |
